Like-named read-outs stand apart in the source and are kept apart here.
Biological target: T1, VAV1 (Homo sapiens, UniProt P15498+Q96SW2)
T1 construct: A heterozygous VAV1 C-terminal HiBiT knock-in pool was generated at Monte Rosa Therapeutics from a clonal Jurkat cell; endogenous in cells; host or cells: Jurkat clone stably expressing LgBiT, homozygous GSPT1-G575N; heterozygous VAV1-HiBiT knock-in pool
Assay: VAV1 degradation activity, VAV1-HiBiT knock-in Jurkat luminescence assay (Example A, Table 1)
Format: cell-based
Conditions: VAV1-HiBiT knock-in Jurkat cells; for Dmax: Jurkat
Method in brief: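 Jurkat cells carrying VAV1-HiBiT knock-in, plated in RPMI/10% FBS with Endurazine live-cell substrate and pre-incubated ~16 h at 37° C. Compound dosed from 10 μM stock; luminescence read 6 and 24 h later. Response normalised to plate negative/positive controls, EC50 from 3-parameter logistic fit (hillslope 1).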

[1] = luminescence read at 6 and 24 hours, read-out: VAV1 Dmax %
[2] = luminescence read at 6 and 24 hours, read-out: VAV1 Dmax %, class
[3] = luminescence read at 6 and 24 hours, read-out: VAV1 DC50
[4] = luminescence read at 6 and 24 hours, read-out: VAV1 DC50 (nM), class

Row | Compound | Dmax [1] | Dmax [2] | DC50 [3] | DC50 [4] | VAV1 Dmax % (luminescence read at 6 and 24 hours) | Dmax (luminescence read at 6 and 24 hours after compound addition, read-out: VAV1 Dmax %) | Dmax (luminescence read at 6 and 24 hours after compound addition, read-out: VAV1 Dmax %, class) | DC50 (luminescence read at 6 and 24 hours after compound addition, read-out: VAV1 DC50) | DC50 (luminescence read at 6 and 24 hours after compound addition, read-out: VAV1 DC50 (nM), class)
1 | O=C1CCC(c2cccc(-c3ccc(Cc4cnccn4)cc3)c2Cl)C(=O)N1 (stereo not shown) [Compound 159, 3-(2-chloro-4′-(pyrazin-2-ylmethyl)-[1,1′-biphenyl]-3-yl)piperidine-2,6-dione] | 96% | > 90% | 14.8 nM | ≤ 100 nM |  |  |  |  | 
2 | O=C1CCC(c2cccc(-c3ccc(N4CCCC(F)C4=O)cc3)c2Cl)C(=O)N1 (stereo not shown) [Compound 323] | 95% | > 90% | 10.6 nM | ≤ 100 nM |  |  |  |  | 
3 | O=C1CCC(c2cccc(-c3ccc(-n4c(F)cccc4=O)cc3)c2Cl)C(=O)N1 (stereo not shown) [Compound 242, 3-(2-chloro-4′-(6-fluoro-2-oxopyridin-1(2H)-yl)-[1,1′-biphenyl]-3-yl)piperidine-2,6-dione] | 91.5% | > 90% | 68.4 nM | ≤ 100 nM |  |  |  |  | 
4 | O=C1CCC(c2cccc(-c3ccc(-n4ccc(C(F)(F)F)cc4=O)cc3)c2Cl)C(=O)N1 (stereo not shown) [Compound 236, 3-(2-chloro-4′-(2-oxo-4-(trifluoromethyl)pyridin-1(2H)-yl)-[1,1′-biphenyl]-3-yl)piperidine-2,6-dione] | 93.5% | > 90% | 31.3 nM | ≤ 100 nM |  |  |  |  | 
5 | O=C1CCC(c2cccc(-c3ccc(Cc4nccc(C5CC5)n4)cc3)c2Cl)C(=O)N1 (stereo not shown) [Compound 344, 3-(2-chloro-4′-((4-cyclopropylpyrimidin-2-yl)methyl)-[1,1′-biphenyl]-3-yl)piperidine-2,6-dione] | 98% | > 90% | 6.97 nM | ≤ 100 nM |  |  |  |  | 
6 | CC(=O)Nc1ccc(-c2cccc(C3CCC(=O)NC3=O)c2Cl)cc1 (stereo not shown) [Compound 128] | 81.1% | 60 to 90% | 67.4 nM | ≤ 100 nM |  |  |  |  | 
7 | Cn1ccc2c1C(=O)N(Cc1ccc(-c3cccc(C4CCC(=O)NC4=O)c3Cl)cc1)CC2 (stereo not shown) [Compound 272] | 96.8% | > 90% | 13.6 nM | ≤ 100 nM |  |  |  |  | 
8 | CC1CN(Cc2ccc(-c3cccc(C4CCC(=O)NC4=O)c3Cl)cc2)C(=O)C(C)O1 (stereo not shown) [Compound 267] | 96.4% | > 90% | 11.5 nM | ≤ 100 nM |  |  |  |  | 
9 | O=C1CCC(c2cccc(-c3ccc(CN4CCn5ccnc5C4=O)cc3)c2Cl)C(=O)N1 (stereo not shown) [Compound 274] | 69.5% | 60 to 90% | 269 nM | 100 to 1000 nM |  |  |  |  | 
10 | COc1cc(OC(F)F)ccc1-c1cccc(C2CCC(=O)NC2=O)c1Cl (stereo not shown) [Compound 137] | 63.8% | 60 to 90% | 7440 nM | > 1000 nM |  |  |  |  | 
11 | Cn1ccc(COc2ccc(-c3c(C#N)ccc(C4CCC(=O)NC4=O)c3Cl)cc2)n1 (stereo not shown) [Compound 179] | 32.8% | < 60% | ≥ 10000 nM | > 1000 nM |  |  |  |  | 
12 | CNc1ccc(-c2cccc(C3CCC(=O)NC3=O)c2Cl)cc1 (stereo not shown) [Compound 134, 3-(2-chloro-4′-(methylamino)-[1,1′-biphenyl]-3-yl)piperidine-2,6-dione] | 85.7% | > 90% | 90.9 nM |  | 76.45% |  |  |  | 
13 | O=C1CCC(c2cccc(-c3ccc(-n4ccccc4=O)cc3)c2F)C(=O)N1 (stereo not shown) [Compound 234, 3-(2-fluoro-4′-(2-oxopyridin-1(2H)-yl)-[1,1′-biphenyl]-3-yl)piperidine-2,6-dione] | 75.8% | 60 to 90% | 127 nM | 100 to 1000 nM |  |  |  |  | 
14 | Cc1ccc(=O)n(Cc2ccc(-c3cccc(C4CCC(=O)NC4=O)c3Cl)cc2)c1 (stereo not shown) [Compound 188, 3-(2-chloro-4′-((5-methyl-2-oxopyridin-1(2H)-yl)methyl)-[1,1′-biphenyl]-3-yl)piperidine-2,6-dione] | 95% | > 90% | 7.16 nM | ≤ 100 nM |  |  |  |  | 
15 | COc1ccc(-c2cccc(C3CCC(=O)NC3=O)c2Cl)cc1OC(F)F (stereo not shown) [Compound 108] | 47.8% | < 60% | ≥ 10000 nM | > 1000 nM |  |  |  |  | 
16 | C[C@H]1COCC(=O)N1c1ccc(-c2cccc(C3CCC(=O)NC3=O)c2Cl)cc1 (stereo partly shown) [Compound 325] | 96.2% | > 90% | 6.66 nM | ≤ 100 nM |  |  |  |  | 
17 | Cn1cncc1COc1ccc(-c2cccc(C3CCC(=O)NC3=O)c2Cl)cc1 (stereo not shown) [Compound 186, 3-(2-chloro-4′-((1-methyl-1H-imidazol-5-yl)methoxy)-[1,1′-biphenyl]-3-yl)piperidine-2,6-dione] | 95.3% | > 90% | 13.6 nM | ≤ 100 nM |  |  |  |  | 

Second part, the molecule after the results:

Row | Dmax [1] | Dmax [2] | DC50 [3] | DC50 [4] | VAV1 Dmax % (luminescence read at 6 and 24 hours) | Dmax (luminescence read at 6 and 24 hours after compound addition, read-out: VAV1 Dmax %) | Dmax (luminescence read at 6 and 24 hours after compound addition, read-out: VAV1 Dmax %, class) | DC50 (luminescence read at 6 and 24 hours after compound addition, read-out: VAV1 DC50) | DC50 (luminescence read at 6 and 24 hours after compound addition, read-out: VAV1 DC50 (nM), class) | Compound
18 | 84.4% | 60 to 90% | 122 nM | 100 to 1000 nM |  |  |  |  |  | O=C1CCC(c2cccc(-c3ccc(N4CCCCC4)cc3)c2Cl)C(=O)N1 (stereo not shown) [Compound 459, 3-(2-chloro-4′-(piperidin-1-yl)-[1,1′-biphenyl]-3-yl)piperidine-2,6-dione]
19 | 98.5% | > 90% | 1.84 nM | ≤ 100 nM |  |  |  |  |  | O=C1CC[C@@](F)(c2cccc(-c3ccc(N4CCCCC4=O)cc3)c2Cl)C(=O)N1 (single isomer, unassigned) [Compound 368]
20 | 95.8% | > 90% | 15.2 nM | ≤ 100 nM |  |  |  |  |  | O=C1CCC(c2cccc(-c3ccc(Cc4cncnc4)cc3)c2Cl)C(=O)N1 (stereo not shown) [Compound 376, 3-(2-chloro-4′-(pyrimidin-5-ylmethyl)-[1,1′-biphenyl]-3-yl)piperidine-2,6-dione]
21 | 96.4% | > 90% | 17.1 nM | ≤ 100 nM |  |  |  |  |  | O=C1CCC(c2cccc(-c3ccc(Cc4nccc(C(F)(F)F)n4)cc3)c2Cl)C(=O)N1 (stereo not shown) [Compound 347, 3-(2-chloro-4′-((4-(trifluoromethyl)pyrimidin-2-yl)methyl)-[1,1′-biphenyl]-3-yl)piperidine-2,6-dione]
22 | 97.8% | > 90% | 13.4 nM | ≤ 100 nM |  |  |  |  |  | O=C1CCC(c2cccc(-c3ccc(Cc4cccnn4)cc3)c2Cl)C(=O)N1 (stereo not shown) [Compound 453, 3-(2-chloro-4′-(pyridazin-3-ylmethyl)-[1,1′-biphenyl]-3-yl)piperidine-2,6-dione]
23 | 97.4% | > 90% | 10.2 nM | ≤ 100 nM |  |  |  |  |  | O=C1CCC(c2cccc(-c3ccc(Cc4cccnc4)cc3)c2Cl)C(=O)N1 (stereo not shown) [Compound 374, 3-(2-chloro-4′-(pyridin-3-ylmethyl)-[1,1′-biphenyl]-3-yl)piperidine-2,6-dione]
24 | 88% | 60 to 90% | 55 nM | ≤ 100 nM |  |  |  |  |  | O=C1CCC(c2cccc(-c3cnc(N4C(=O)CCC45CCC5)c(F)c3)c2Cl)C(=O)N1 (stereo not shown) [Compound 365, 3-(2-chloro-3-(5-fluoro-6-(6-oxo-5-azaspiro[3.4]octan-5-yl)pyridin-3-yl)phenyl)piperidine-2,6-dione]
25 | 74.6% | 60 to 90% | 144 nM | 100 to 1000 nM |  |  |  |  |  | O=C1CCC(c2cccc(-c3ccc(CS(=O)(=O)N4CCCC4)cc3)c2Cl)C(=O)N1 (stereo not shown) [Compound 423, 3-(2-chloro-4′-((pyrrolidin-1-ylsulfonyl)methyl)-[1,1′-biphenyl]-3-yl)piperidine-2,6-dione]
26 | 94.8% | > 90% | 9.46 nM | ≤ 100 nM |  |  |  |  |  | O=C1CCC(c2cccc(-c3ccc(N4CCC(F)(F)CC4=O)cc3)c2Cl)C(=O)N1 (stereo not shown) [Compound 464, 3-(2-chloro-4′-(4,4-difluoro-2-oxopiperidin-1-yl)-[1,1′-biphenyl]-3-yl)piperidine-2,6-dione]
27 | 31% | < 60% | ≥ 10000 nM | > 1000 nM |  |  |  |  |  | Cn1ccc(COc2ncc(-c3cccc(C4CCC(=O)NC4=O)c3Cl)cn2)n1 (stereo not shown) [Compound 479, 3-(2-chloro-3-(2-((1-methyl-1H-pyrazol-3-yl)methoxy)pyrimidin-5-yl)phenyl)piperidine-2,6-dione]
28 | 96.5% | > 90% | 8.9 nM | ≤ 100 nM |  |  |  |  |  | O=C1CCC(c2cccc(-c3ccc(N4C(=O)OCC45CC5)cc3)c2Cl)C(=O)N1 (stereo not shown) [Compound 426, 3-(2-chloro-4′-(5-oxo-6-oxa-4-azaspiro[2.4]heptan-4-yl)-[1,1′-biphenyl]-3-yl)piperidine-2,6-dione]
29 | 88.7% | 60 to 90% | 65.6 nM | ≤ 100 nM |  |  |  |  |  | O=C1CCC(c2cccc(-c3ccc(-n4ccccc4=O)nc3)c2Cl)C(=O)N1 (stereo not shown) [Compound 477, 3-(2-chloro-3-(2-oxo-2H-[1,2′-bipyridin]-5′-yl)phenyl)piperidine-2,6-dione]
30 |  |  |  |  |  | 98% | > 90% | 11.8 nM | ≤ 100 nM | Cn1ccc(Cn2ncc3cc(-c4cccc(C5CCC(=O)NC5=O)c4Cl)ccc32)n1 (stereo not shown) [Compound 498, 3-(2-chloro-3-(1-((1-methyl-1H-pyrazol-3-yl)methyl)-1H-indazol-5-yl)phenyl)piperidine-2,6-dione]
31 | 96.7% | > 90% | 8.08 nM | ≤ 100 nM |  |  |  |  |  | Cn1ccc(Cc2nn(C)c3cc(-c4cccc(C5CCC(=O)NC5=O)c4Cl)ccc23)n1 (stereo not shown) [Compound 480, 3-(2-chloro-3-(1-methyl-3-((1-methyl-1H-pyrazol-3-yl)methyl)-1H-indazol-6-yl)phenyl)piperidine-2,6-dione]
